Measurements: patent US6919379B2, “Compounds useful in reflux disease” (AstraZeneca AB, priority 2001, dated 2005)

melting point	SMILES
206 to 208 °C	NC[C@H](O)CS(=O)O [Example 1, (2S)-(3-Amino-2-hydroxypropyl)sulphinic acid]
210 °C	NC[C@@H](O)CS(=O)O [Example 2, (2R)-(3-Amino-2-hydroxypropyl)sulphinic acid]
136 to 138 °C	NC[C@@H](F)CS(=O)O
